Measurements as given in PMC11096368, “Transcriptomic signature, bioactivity and safety of a non-hepatotoxic analgesic generating AM404 in the midbrain PAG region” (Scientific Reports, 2024).
“Also recorded” adds a separate entry of the source.

How the values were obtained:
[1] = tested on: healthy volunteers; assay: Phase 1 trial safety and tolerability; type: in vivo, human; details: for Clinically significant abnormality (N): Adverse events / Clinically significant abnormality (N): Clinical chemistry / Clinically significant abnormality (N): ECG / Clinically significant abnormality (N): Physical exam / Clinically significant abnormality (N): Urinalysis / Clinically significant abnormality (N): Vital signs / Clinically significant abnormality (N): pharHematology: n = 6
Procedure: A randomized, double-blind, placebo-controlled Phase 1 trial (ClinicalTrials.gov identifier: NCT05484414) (02/08/2022) was conducted to assess the safety, tolerability, food effect, pharmacokinetics (PK), and pharmacodynamics (PD) of single and multiple ascending doses of SRP-001 (Quotient Sciences, Miami FL USA; Fig. 3h - k and Methods). The trial was conducted in accordance with the International Council for Harmonisation of Technical Requirements for Pharmaceuticals for Human Use (ICH), Guideline for GCP: Consolidated Guidance (E6), attained Institutional Review Board approval, and all applicable regulatory requirements for Phase 1, First in Human clinical trials. Safety measurements and plasma samples to determine PK parameters were collected throughout the study for all subjects and reviewed by the Safety Review Committee. PK stopping criteria were established to assure that systemic exposure to SRP-001 was less than or equal to the systemic exposure achieved at the NOAEL doses in the 28-day repeat-dose toxicology studies in the rat and dog. The trial’s Safety Advisory Committee has approved the publication of the Phase 1 results.
SRP-001 was administered as an oral nanosuspension to 56 healthy volunteers across five Single Ascending Dose (SAD) and two Multiple Ascending Dose (MAD) cohorts, with 42 subjects receiving SRP-001 and 14 receiving a placebo.
A two-part randomized, double-blind, placebo-controlled Phase 1 trial was conducted to assess the safety, tolerability, PK and PD of SRP-001 ascending doses (Quotient Sciences, Miami, FL, USA). The study was conducted in accordance with the International Council for Harmonisation of Technical Requirements for Pharmaceuticals for Human Use (ICH), Guideline for GCP: Consolidated Guidance (E6), and applicable regulatory requirements(s) including clinical research guidelines established by the Basic Principles defined in the U.S. 21 CFR Parts 50, 56, and 312 and the principles enunciated in the Declaration of Helsinki (revised version Fortaleza 2013). The clinical protocol and informed consent form were reviewed and approved by an Institutional Review Board (IRB; Advarra IRB, 6100 Merriweather Drive, Suite 600, Columbia, MD 21,044; Quotient Protocol No. SRP-101 and Quotient Sciences Study No. QSC205130; Quotient Sciences Miami, 3898 NW 7th Street, Miami, FL 33,126.). The study comprises a SAD (Part 1) assessment that includes a food effect assessment that contributes data to inform a subsequent MAD (Part 2) dose-ranging study. Safety measurements were collected throughout the study for all subjects. Blood samples were collected to determine the PK parameters of SRP-001 (ClinicalTrials.gov identifier: NCT05484414) (02/08/2022).
NHVs also underwent continuous ECG Holter monitoring from at least 1 h prior to dosing until 24 h post-dose, and resulting measurements were monitored consistently. All ECGs were collected electronically using a Mortara H12 + Holter monitor. Specific procedures for ECG Holter recording and extractions were provided to the Investigator by the Central ECG Laboratory, Banook Group. On Day 1, continuous Holter recording commenced at least 1 h prior to dosing until 24 h post-dose. Subjects were required to rest in the supine position with no external stimuli (e.g. music or television) for 15 min prior to the nominal time point where an ECG extraction was scheduled. This extraction was taken by the third-party Holter provider at the planned time, and therefore, no other procedures were performed within the resting period. […] Subjects were allowed to move more freely outside of the primary ECG rest periods. Comfort breaks for hygienic purposes were allowed each morning well in advance of the required supine/ECG extraction points. […]

[2] = tested on: beagle dogs; assay: Cardiovascular effect in conscious telemetered beagle dogs (GLP); type: in vivo, dog; details: oral, 30, 90, 150 mg/kg
Procedure: The effects of SRP-001 on hERG current amplitude at physiologic temperatures were evaluated over a nominal concentration range of 0.1 μM to […]. A vehicle group (10% DMSO) was included in the study for comparison, and dofetilide (10 nM) was used as a reference substance. The vehicle and positive controls indicated appropriate sensitivity of the test systems. […] Next, the potential acute effects of oral SRP-001 on cardiovascular function in conscious telemetered beagle dogs was done using a Latin Square design; 4 male naïve beagle dogs each received vehicle (10% DMSO: 10% labrasol: 80% PEG400) and three doses (30, 90, and 150 mg/kg) of SRP-001 nanosuspension by oral gavage. […] A single dose was administered on the day of dosing, and a washout period of seven days was allowed between doses. One-min means of hemodynamic parameters, as well as ECG parameters and body temperature, were measured for a period of at least 24 h. One-min tracings of the ECGs were obtained at 15 min prior to dosing and at 30 min, 1, 2, 4, 8, 12, and 24 h post-dose. Qualitative evaluation of the ECGs was done by a board-certified veterinary cardiologist.

[3] = Cohort 1 (Regimen A), 300 mg SRP-001, Fasted
[4] = Cohort 2 (Regimen B), 600 mg SRP-001, Fasted
[5] = Cohort 3 (Regimen C), 900 mg SRP-001, Fasted
[6] = Cohort 4 (Regimen E), 2000 mg SRP-001, Fasted

CCN(CC)C(=O)c1ccccc1S(=O)(=O)NCC(=O)Nc1ccc(O)cc1 [SRP-001, N,N-diethyl-2-[[2-(4-hydroxyanilino)-2-oxo-ethyl]sulfamoyl]benzamide]
Clinically significant abnormality (N): Adverse events [1, 3]: 0
Clinically significant abnormality (N): Clinical chemistry [1, 3]: 0
Clinically significant abnormality (N): ECG [1, 3]: 0
Clinically significant abnormality (N): Physical exam [1, 3]: 0
Clinically significant abnormality (N): Urinalysis [1, 3]: 0
Clinically significant abnormality (N): Vital signs [1, 3]: 0
Clinically significant abnormality (N): pharHematology [1, 3]: 0
Clinically significant abnormality (N): Adverse events [1, 4]: 0
Clinically significant abnormality (N): Clinical chemistry [1, 4]: 0
Clinically significant abnormality (N): ECG [1, 4]: 0
Clinically significant abnormality (N): Physical exam [1, 4]: 0
Clinically significant abnormality (N): Urinalysis [1, 4]: 0
Clinically significant abnormality (N): Vital signs [1, 4]: 0
Clinically significant abnormality (N): pharHematology [1, 4]: 0
Clinically significant abnormality (N): Adverse events [1, 5]: 0
Clinically significant abnormality (N): Clinical chemistry [1, 5]: 0
Clinically significant abnormality (N): ECG [1, 5]: 0
Clinically significant abnormality (N): Physical exam [1, 5]: 0
Clinically significant abnormality (N): Urinalysis [1, 5]: 0
Clinically significant abnormality (N): Vital signs [1, 5]: 0
Clinically significant abnormality (N): pharHematology [1, 5]: 0
Clinically significant abnormality (N): Adverse events [1, 6]: 0
Clinically significant abnormality (N): Clinical chemistry [1, 6]: 0
Clinically significant abnormality (N): ECG [1, 6]: 0
Clinically significant abnormality (N): Physical exam [1, 6]: 0
Clinically significant abnormality (N): Urinalysis [1, 6]: 0
Clinically significant abnormality (N): Vital signs [1, 6]: 0
Clinically significant abnormality (N): pharHematology [1, 6]: 0
Emesis ([1]; Phase 1 MAD cohort): no emesis
Safety assessments (vital signs, physical examinations, continuous ECG, laboratory tests) ([1]; SAD and MAD cohorts): revealed no abnormalities
Serious adverse events (SAEs) ([1]; five SAD and two MAD cohorts, 42 subjects receiving SRP-001): no serious adverse events (SAEs) reported
Tolerability ([1]; oral nanosuspension, SAD and MAD cohorts): well tolerated
Cardiovascular findings (blood pressure, heart rate, ECG, body temperature) [2]: did not induce any biologically relevant effects; also recorded: No significant findings
